The values that follow come from patent US20190375708A1 (VenatoRx Pharmaceuticals, Inc., priority 2018, published 2019).

Data set [1] can be described thus: In vitro cytotoxicity assay (MTT cell viability) in HepG2 cells. The settings on record: human. Type of data set: cell-based, human. The gist of the method: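 HepG2 cells incubated 7 days at 37 °C, 5% CO2 with compounds from 30 μM to 1.0 nM (8 half-log dilutions). Viability read as MTT formazan absorbance at 492 nm, normalised to vehicle controls; CC50 from 4-parameter non-linear regression.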

The test system of data set [2] is HBV replication in HepAD38 cells. Nature of the data set: Anti-HBV replication assay in HepAD38 cells (QPCR of extracellular HBV DNA). In kind it is cell-based, HBV (genotype D, serotype ayw). The following applies: Hepatitis B virus, 168 h, 7 days incubation, extracellular HBV DNA by QPCR, read-out: Anti-HBV EC50. The gist of the method: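 HepAD38 cells (HepG2 carrying a tet-repressible HBV genotype D genome) were seeded in tetracycline-free medium and treated next day with compound […] for 7 days. Supernatant HBV DNA was measured by QPCR against a standard curve; EC50 came from 4-parameter fits of inhibition versus DMSO control.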

The CC50 is the concentration at which the toxic effect on the cells reaches its halfway point. Higher therefore signals lower toxicity to the cells. Broadly, the EC50 is the concentration at which the effect is half-maximal. `Cc1cc(NC(=O)c2c(C)c(C(=O)C(=O)NC3(C(F)(F)F)CCOCC3)n(C)c2C)cc(Cl)n1` [Example 638, N-(2-chloro-6-methylpyridin-4-yl)-1,2,4-trimethyl-5-(2-oxo-2-((4-(trifluoromethyl)etetrahydro-2H-pyran-4-yl)amino)acetyl)-1H-pyrrole-3-carboxamide] gave a CC50 at 7 days in data set [1] of more than 30000 nM. The EC50 in data set [2] is less than 50 nM.
In turn, `Cc1cc(NC(=O)c2c(C)c(C(=O)C(=O)NC(C)(C)C(F)(F)F)n(C)c2C)cnc1F` [Example 173, N-(6-fluoro-5-methylpyridin-3-yl)-1,2,4-trimethyl-5-(2-oxo-2-((1,1,1-trifluoro-2-methylpropan-2-yl)amino)acetyl)-1H-pyrrole-3-carboxamide] came in with a CC50 at 7 days in data set [1] of more than 30000 nM. Besides, the EC50 in data set [2] is less than 50 nM.
For `Cc1cc(NC(=O)c2c(Cl)c(C(=O)C(=O)NCC(C)(C)O)n3c2CCCC3)ccc1F` [Example 497, 2-chloro-N-(4-fluoro-3-methylphenyl)-3-(2-((2-hydroxy-2-methylpropyl)amino)-2-oxoacetyl)-5,6,7,8-tetrahydroindoliine-1-carboxamide], in that order: 500 to 4990 nM and 50 to 499 nM.
In turn, `Cc1cc(NC(=O)c2c(C)c(C(=O)C(=O)NC(C)(C)C)n(CCF)c2C)cnc1F` [Example 225, 5-(2-(tert-butylamino)-2-oxoacetyl)-N-(6-fluoro-5-methylpyridin-3-yl)-1-(2-fluoroethyl)-2,4-dimethyl-1H-pyrrole-3-carboxamide] returned a CC50 at 7 days in data set [1] of more than 30000 nM. Also, the EC50 in data set [2] was 500 to 1000 nM.
For `CCn1c(C)c(C(=O)Nc2ccc(F)c(C)c2)c(C)c1C(=O)C(=O)NC(C)(C)CO` [Example 98, 1-ethyl-N-(4-fluoro-3-methylphenyl)-5-(2-((1-hydroxy-2-methylpropan-2-yl)amino)-2-oxoacetyl)-2,4-dimethyl-1H-pyrrole-3-carboxamide], in that order: more than 30000 nM and less than 50 nM.
For `Cc1cc(NC(=O)c2c(C)c(C(=O)C(=O)N[C@H]3C[C@@H](NS(C)(=O)=O)C3)n(C)c2C)ccc1F` [Example 669, N-(4-fluoro-3-methylphenyl)-1,2,4-trimethyl-5-(2-(((1s,3s)-3-(methylsulfonamido)cyclobutyl)amino)-2-oxoacetyl)-1H-pyrrole-3-carboxamide], in that order: more than 30000 nM and less than 50 nM.
For `Cc1c(C(=O)Nc2ccc(F)c(Cl)c2)c2n(c1C(=O)C(=O)N[C@H]1CCC[C@H]1O)CCCC2` [Example 451, N-(3-chloro-4-fluorophenyl)-3-(2-(((1S,2R)-2-hydroxycyclopentyl)amino)-2-oxoacetyl)-2-methyl-5,6,7,8-tetrahydroindolizine-1-carboxamide], in that order: 5000 to 30000 nM and 50 to 499 nM.
Regarding `Cc1nc2c(s1)CCCC2NC(=O)C(=O)c1c(C)c(C(=O)Nc2ccc(F)c(C)c2)c(C)n1C` (centres unmarked) [Example 625, N-(4-fluoro-3-methylphenyl)-1,2,4-trimethyl-5-(2-((2-methyl-4,5,6,7-tetrahydrobenzo[d]thiazol-4-yl)amino)-2-oxoacetyl)-1H-pyrrole-3-carboxamide], in data set [1], the CC50 at 7 days is more than 30000 nM. For the same compound, in data set [2], the EC50 was less than 50 nM.
For `CC(C)(CO)NC(=O)C(=O)c1cc(C(=O)Nc2ccc(F)c(F)c2)c2n1CCCC2` [Example 426, N-(3,4-difluorophenyl)-3-(2-((1-hydroxy-2-methylpropan-2-yl)amino)-2-oxoacetyl)-5,6,7,8-tetrahydroindolizine-1-carboxamide], in that order: more than 30000 nM and 50 to 499 nM.
For `Cc1cc(NC(=O)c2c(Cl)c(C(=O)C(=O)NC(C)(C)CO)n3c2CCCC3)cnc1F` [Example 508, 2-chloro-N-(6-fluoro-5-methylpyridin-3-yl)-3-(2-((1-hydroxy-2-methylpropan-2-yl)amino)-2-oxoacetyl)-5,6,7,8-tettrahydroindolizine-1-carboxamide], in that order: more than 30000 nM and 500 to 1000 nM.
For `Cc1cc(NC(=O)c2c(Cl)c(C(=O)C(=O)NC3(CO)CCC3)n3c2CCCC3)ccc1F` [Example 504, 2-chloro-N-(4-fluoro-3-methylphenyl)-3-(2-((1-(hydroxymethyl)cyclobutyl)amino)-2-oxoacetyl)-5,6,7,8-tetrahydroindolizine-1-carboxamide], in that order: 5000 to 30000 nM and less than 50 nM.
For `Cc1cc(NC(=O)c2c(C)c(C(=O)C(=O)NCC(C)(C)O)n3c2CCCC3)ccc1F` [Example 444, N-(4-fluoro-3-methylphenyl)-3-(2-((2-hydroxy-2-methylpropyl)amino)-2-oxoacetyl)-2-methyl-5,6,7,8-tetrahydroindolizine-1-carboxamide], the CC50 at 7 days in data set [1] lay within 5000 to 30000 nM. Moreover, the EC50 in data set [2] was less than 50 nM.
For the compound `Cc1cc(NC(=O)c2c(C)c(C(=O)C(=O)Nc3cccnc3)n3c2CCCC3)ccc1F` [Example 739, N-(4-fluoro-3-methylphenyl)-2-methyl-3-(2-oxo-2-(pyridin-3-ylamino)acetyl)-5,6,7,8-tetrahydroindolizine-1-carboxamide], the CC50 at 7 days in data set [1] is more than 30000 nM. For the same compound, the EC50 in data set [2] is 50 to 499 nM.
Compound `CNC(=O)[C@@H](NC(=O)C(=O)c1c(C)c(C(=O)Nc2ccc(F)c(C)c2)c(C)n1C)C1CCCC1` [Example 125, (S)-5-(2-((1-cyclopentyl-2-(methylamino)-2-oxoethyl)amino)-2-oxoacetyl)-N-(4-fluoro-3-methylphenyl)-1,2,4-trimethyl-1H-pyrrole-3-carboxamide] yielded a CC50 at 7 days in data set [1] of 500 to 4990 nM. In addition, the EC50 in data set [2] is less than 50 nM.
The like results for `Cc1c(C(=O)Nc2cccc(Cl)c2)c(C)n(C)c1C(=O)C(=O)N[C@H](C)C(F)(F)F` [Example 603, (R)-N-(3-chlorophenyl)-1,2,4-trimethyl-5-(2-oxo-2-((1,1,1-trifluoropropan-2-yl)amino)acetyl)-1H-pyrrole-3-carboxamide] were, in that order, 5000 to 30000 nM and less than 50 nM.
The like results for `CC(=O)N1CC[C@@H](NC(=O)C(=O)c2c(C)c(C(=O)Nc3ccc(F)c(C)c3)c(C)n2C)C1` [Example 664, (R)-5-(2-((1-acetylpyrrolidin-3-yl)amino)-2-oxoacetyl)-N-(4-fluoro-3-methylphenyl)-1,2,4-trimethyl-1H-pyrrole-3-carboxamide] were, in that order, more than 30000 nM and less than 50 nM.
For `Cc1c(C(=O)Nc2ccc(F)cc2)c(C)n(C)c1C(=O)C(=O)N[C@H]1CC[C@@H](O)CC1` [Example 724], in that order: more than 30000 nM and less than 50 nM.
As to `Cc1c(C(=O)Nc2ccc(F)c(F)c2)c(Cl)c(C(=O)C(=O)NC2(C(F)(F)F)CC2)n1C` [Example 376, 4-chloro-N-(3,4-difluorophenyl)-1,2-dimethyl-5-(2-oxo-2-((1-(trifluoromethyl)cyclopropyl)amino)acetyl)-1H-pyrrole-3-carboxamide], the CC50 at 7 days in data set [1] lay in the range of 5000 to 30000 nM. In addition, the EC50 in data set [2] is less than 50 nM.
In the case of `Cc1cc(NC(=O)c2c(Cl)c(C(=O)C(=O)NC(C)(C)C)n(C)c2C)ccc1F` [Example 363, 5-(2-(tert-butylamino)-2-oxoacetyl)-4-chloro-N-(4-fluoro-3-methylphenyl)-1,2-dimethyl-1H-pyrrole-3-carboxamide], the CC50 at 7 days in data set [1] is more than 30000 nM. In addition, the EC50 in data set [2] is less than 50 nM.
